Publication PMC4447944 (The Journal of Biological Chemistry, 2015)

Tests used:
[1] = target: hD2L (Homo sapiens, UniProt P14416); test: cAMP Agonist (Eurofins-CEREP); conditions: @ 10 μM
[2] = target: T1, hFLT3(N841I) (Homo sapiens, UniProt P36888, N841I); test: KINOMEscan; format: binding
T1 construct: purchased DiscoverX

[3] = tested on: SMYD2-mediated methylation of p53 Lys370; test: Western blot for p53 Lys370me1, HEK293 cells co-transfected with FLAG-SMYD2 and FLAG-p53; format: cell-based; conditions: Homo sapiens, 0–2.5 μM, 28 h, read-out: IC50, decrease in p53 Lys370me1
Method: Cell lysates were subject to 10% SDS-PAGE and transferred to a PVDF membrane. Each membrane was blocked in Odyssey Blocking Buffer (LI-COR Biosciences) and incubated with monoclonal anti-p53 (D01) antibody (Abcam, ab1101) or rabbit anti-p53 Lys^370me1 antibody (a kind gift from Dr. Shelley Berger) followed by detection with IRDye®680RD goat anti-mouse IgG (LI-COR Biosciences) and IRDye800CW goat anti-rabbit IgG (LI-COR Biosciences) on the Odyssey Imager (LI-COR Biosciences). […] 4–8 h later, cells were treated with 0–25 μM compound for 15 h. […] 24 h later, cells were lysed with 200 μl of MSD Tris Lysis Buffer^TM (Meso Scale Discovery). A MULTI-ARRAY^TM 96-well plate (Meso Scale Discovery, catalog number L15XA-3) was precoated with 2 μg/ml custom-made methyl-p53 antibody (Lampire) in PBS overnight at 4 °C. 150 μl/well MSD Blocking Solution A^TM (final concentration of 3%) was added followed by shaking at room temperature for 1 h. The plate was washed three times with 1× MSD Tris Wash Buffer^TM (Meso Scale Discovery). 0.5 μg of cell lysate in 25 μl/well MSD Tris Lysis Buffer was added, followed by shaking overnight at 4 °C. […] Following a final wash three times with 1× MSD Tris Wash Buffer, 150 μl/well 1× MSD Read Buffer^TM (Meso Scale Discovery) was added, and plates were read on an MSD SECTOR^TM Imager 6000 instrument (Meso Scale Discovery).

[4] = target: T2, hM2 (Homo sapiens, UniProt P08172); test: β-arrestin Antagonist (Eurofins-CEREP); conditions: read-out: % Effect, Inhibition
T2 sequence (P08172 1-466): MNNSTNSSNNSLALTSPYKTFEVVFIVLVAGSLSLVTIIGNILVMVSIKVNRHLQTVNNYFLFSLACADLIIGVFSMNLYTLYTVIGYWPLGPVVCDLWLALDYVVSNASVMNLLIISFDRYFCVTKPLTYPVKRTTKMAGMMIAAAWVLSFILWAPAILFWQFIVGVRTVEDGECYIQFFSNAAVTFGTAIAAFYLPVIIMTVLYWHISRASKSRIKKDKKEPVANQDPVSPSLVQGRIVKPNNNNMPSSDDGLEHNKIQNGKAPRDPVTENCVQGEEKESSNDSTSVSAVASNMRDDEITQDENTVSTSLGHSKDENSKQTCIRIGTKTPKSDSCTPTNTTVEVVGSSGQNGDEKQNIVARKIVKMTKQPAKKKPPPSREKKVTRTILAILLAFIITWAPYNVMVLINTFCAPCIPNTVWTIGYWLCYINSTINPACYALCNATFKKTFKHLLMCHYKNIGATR

[5] = target: T3, hADORA3 (Homo sapiens, UniProt P0DMS8); test: cAMP Agonist (Eurofins-CEREP); conditions: @ 10 μM
T3 sequence (P0DMS8 1-318): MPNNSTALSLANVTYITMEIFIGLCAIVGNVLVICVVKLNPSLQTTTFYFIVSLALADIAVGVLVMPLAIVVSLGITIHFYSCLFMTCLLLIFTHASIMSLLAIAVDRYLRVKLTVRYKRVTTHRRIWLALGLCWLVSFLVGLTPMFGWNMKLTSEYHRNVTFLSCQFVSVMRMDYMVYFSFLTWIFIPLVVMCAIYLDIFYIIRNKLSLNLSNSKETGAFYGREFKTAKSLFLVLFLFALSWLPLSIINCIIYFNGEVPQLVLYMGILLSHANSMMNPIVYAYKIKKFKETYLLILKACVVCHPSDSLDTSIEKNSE

[6] = target: T4, hCSNK2A1 (Homo sapiens, UniProt P68400); test: KINOMEscan; format: binding
T4 construct: purchased DiscoverX (KINOMEscan platform)
T4 sequence (P68400 whole entry): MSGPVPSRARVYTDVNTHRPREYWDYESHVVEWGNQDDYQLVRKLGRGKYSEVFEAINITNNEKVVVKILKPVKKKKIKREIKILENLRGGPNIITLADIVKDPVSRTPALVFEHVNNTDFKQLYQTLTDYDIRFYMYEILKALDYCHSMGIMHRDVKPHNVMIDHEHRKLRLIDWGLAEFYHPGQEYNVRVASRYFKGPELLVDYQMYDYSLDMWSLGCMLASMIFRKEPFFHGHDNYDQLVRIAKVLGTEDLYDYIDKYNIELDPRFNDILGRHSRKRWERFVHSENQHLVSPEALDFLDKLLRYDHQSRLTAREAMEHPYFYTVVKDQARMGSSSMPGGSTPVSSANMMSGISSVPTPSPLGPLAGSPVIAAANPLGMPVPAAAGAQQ

[7] = target: hD1 (Homo sapiens, UniProt P21728); test: β-arrestin Antagonist (Eurofins-CEREP); conditions: read-out: % Effect, Inhibition
[8] = target: hM3 (Homo sapiens, UniProt P20309); test: Calcium Mobilization Agonist (Eurofins-CEREP); conditions: @ 13.3 μM
Chain of hM3 (P20309 whole entry): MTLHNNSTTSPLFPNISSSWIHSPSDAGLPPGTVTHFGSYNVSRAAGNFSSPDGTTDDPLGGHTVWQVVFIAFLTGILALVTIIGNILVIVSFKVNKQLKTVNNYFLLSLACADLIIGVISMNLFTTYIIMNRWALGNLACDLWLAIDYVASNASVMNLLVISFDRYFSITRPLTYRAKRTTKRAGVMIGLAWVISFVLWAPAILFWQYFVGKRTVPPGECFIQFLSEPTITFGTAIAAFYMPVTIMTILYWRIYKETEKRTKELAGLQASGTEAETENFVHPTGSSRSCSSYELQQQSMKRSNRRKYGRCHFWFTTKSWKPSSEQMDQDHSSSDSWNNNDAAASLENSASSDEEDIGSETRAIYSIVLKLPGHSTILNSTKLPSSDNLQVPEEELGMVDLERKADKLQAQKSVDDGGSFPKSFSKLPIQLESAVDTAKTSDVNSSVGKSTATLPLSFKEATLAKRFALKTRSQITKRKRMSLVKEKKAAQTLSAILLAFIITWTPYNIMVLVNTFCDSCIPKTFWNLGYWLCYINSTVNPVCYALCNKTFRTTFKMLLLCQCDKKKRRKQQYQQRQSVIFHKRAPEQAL

[9] = target: T5, hRAF1 (Homo sapiens, UniProt P04049); test: KINOMEscan; format: binding
T5 construct: purchased DiscoverX (KINOMEscan platform)

[10] = target: T6, hSLK (Homo sapiens, UniProt Q9H2G2); test: KINOMEscan; format: binding
T6 construct: purchased DiscoverX (KINOMEscan platform)
T6 sequence (Q9H2G2 whole entry): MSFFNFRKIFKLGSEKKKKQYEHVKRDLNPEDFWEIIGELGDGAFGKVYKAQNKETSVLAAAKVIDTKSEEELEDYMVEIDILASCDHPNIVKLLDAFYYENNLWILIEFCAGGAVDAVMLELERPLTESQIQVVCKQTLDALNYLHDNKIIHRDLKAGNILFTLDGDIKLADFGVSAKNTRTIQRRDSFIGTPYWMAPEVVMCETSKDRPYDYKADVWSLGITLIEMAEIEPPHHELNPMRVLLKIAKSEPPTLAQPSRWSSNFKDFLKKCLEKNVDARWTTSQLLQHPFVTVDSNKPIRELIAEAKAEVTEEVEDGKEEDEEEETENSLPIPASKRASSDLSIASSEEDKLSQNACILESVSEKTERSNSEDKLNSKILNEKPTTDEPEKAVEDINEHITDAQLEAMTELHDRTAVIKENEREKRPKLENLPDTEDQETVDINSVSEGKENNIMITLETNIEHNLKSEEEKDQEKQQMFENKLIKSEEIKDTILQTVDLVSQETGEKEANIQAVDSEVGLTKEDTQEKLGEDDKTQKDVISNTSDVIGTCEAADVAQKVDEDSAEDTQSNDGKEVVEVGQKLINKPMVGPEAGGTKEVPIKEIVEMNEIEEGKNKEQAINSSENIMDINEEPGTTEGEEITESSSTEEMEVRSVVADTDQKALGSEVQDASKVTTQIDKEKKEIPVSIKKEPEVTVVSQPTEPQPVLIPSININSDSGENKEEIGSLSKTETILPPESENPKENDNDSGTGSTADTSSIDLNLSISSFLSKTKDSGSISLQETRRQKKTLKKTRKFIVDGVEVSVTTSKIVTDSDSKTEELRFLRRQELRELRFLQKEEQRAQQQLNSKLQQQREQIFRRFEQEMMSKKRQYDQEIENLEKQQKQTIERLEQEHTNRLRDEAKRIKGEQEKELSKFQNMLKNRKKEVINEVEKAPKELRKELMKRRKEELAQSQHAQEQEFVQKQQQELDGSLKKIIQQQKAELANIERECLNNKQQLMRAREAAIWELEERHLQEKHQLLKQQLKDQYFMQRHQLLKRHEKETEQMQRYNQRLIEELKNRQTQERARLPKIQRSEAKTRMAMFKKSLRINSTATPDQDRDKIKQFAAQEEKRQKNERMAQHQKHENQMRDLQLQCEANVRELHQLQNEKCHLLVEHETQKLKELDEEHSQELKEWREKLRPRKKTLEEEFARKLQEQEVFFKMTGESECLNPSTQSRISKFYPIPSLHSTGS

[11] = target: T7, hZAK (Homo sapiens, UniProt Q9NYL2); test: KINOMEscan; format: binding
T7 construct: purchased DiscoverX

[12] = target: T8, hEGFR(G719S) (Homo sapiens, UniProt P00533, G719S); test: KINOMEscan; format: binding
T8 construct: purchased DiscoverX
T8 sequence (P00533 25-1210 G719S): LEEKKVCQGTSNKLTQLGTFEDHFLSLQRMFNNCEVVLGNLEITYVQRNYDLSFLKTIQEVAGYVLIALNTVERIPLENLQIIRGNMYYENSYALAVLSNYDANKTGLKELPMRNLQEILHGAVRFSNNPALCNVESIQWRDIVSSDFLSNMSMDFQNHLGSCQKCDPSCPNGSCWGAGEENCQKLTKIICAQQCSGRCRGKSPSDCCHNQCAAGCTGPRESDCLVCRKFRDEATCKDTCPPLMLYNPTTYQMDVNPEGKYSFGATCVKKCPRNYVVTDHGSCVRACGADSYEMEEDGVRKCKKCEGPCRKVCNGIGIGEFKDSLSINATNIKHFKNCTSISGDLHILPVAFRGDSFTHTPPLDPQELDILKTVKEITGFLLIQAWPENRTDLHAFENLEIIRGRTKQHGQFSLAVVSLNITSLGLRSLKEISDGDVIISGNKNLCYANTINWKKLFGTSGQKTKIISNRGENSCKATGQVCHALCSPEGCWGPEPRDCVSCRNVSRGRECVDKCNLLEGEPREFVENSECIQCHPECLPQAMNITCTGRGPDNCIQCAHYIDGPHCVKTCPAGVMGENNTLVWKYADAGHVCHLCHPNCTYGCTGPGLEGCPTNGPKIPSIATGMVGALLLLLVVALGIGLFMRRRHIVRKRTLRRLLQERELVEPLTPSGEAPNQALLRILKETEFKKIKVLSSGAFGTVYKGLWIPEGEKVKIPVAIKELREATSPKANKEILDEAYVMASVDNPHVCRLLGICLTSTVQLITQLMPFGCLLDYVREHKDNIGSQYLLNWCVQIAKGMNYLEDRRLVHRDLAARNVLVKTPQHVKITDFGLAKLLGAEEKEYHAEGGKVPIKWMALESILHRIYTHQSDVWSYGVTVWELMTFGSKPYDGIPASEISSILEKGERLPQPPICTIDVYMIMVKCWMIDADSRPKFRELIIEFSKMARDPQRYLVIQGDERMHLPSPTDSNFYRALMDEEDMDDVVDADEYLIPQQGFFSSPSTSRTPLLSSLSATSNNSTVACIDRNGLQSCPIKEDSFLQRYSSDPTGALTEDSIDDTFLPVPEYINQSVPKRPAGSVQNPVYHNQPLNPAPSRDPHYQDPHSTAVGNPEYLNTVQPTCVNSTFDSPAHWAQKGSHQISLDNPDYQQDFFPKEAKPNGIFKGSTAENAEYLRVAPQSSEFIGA

[13] = target: T9, hS6K1 (Homo sapiens, UniProt P23443); test: KINOMEscan; format: binding
T9 construct: purchased DiscoverX (KINOMEscan platform)
T9 sequence (P23443 whole entry): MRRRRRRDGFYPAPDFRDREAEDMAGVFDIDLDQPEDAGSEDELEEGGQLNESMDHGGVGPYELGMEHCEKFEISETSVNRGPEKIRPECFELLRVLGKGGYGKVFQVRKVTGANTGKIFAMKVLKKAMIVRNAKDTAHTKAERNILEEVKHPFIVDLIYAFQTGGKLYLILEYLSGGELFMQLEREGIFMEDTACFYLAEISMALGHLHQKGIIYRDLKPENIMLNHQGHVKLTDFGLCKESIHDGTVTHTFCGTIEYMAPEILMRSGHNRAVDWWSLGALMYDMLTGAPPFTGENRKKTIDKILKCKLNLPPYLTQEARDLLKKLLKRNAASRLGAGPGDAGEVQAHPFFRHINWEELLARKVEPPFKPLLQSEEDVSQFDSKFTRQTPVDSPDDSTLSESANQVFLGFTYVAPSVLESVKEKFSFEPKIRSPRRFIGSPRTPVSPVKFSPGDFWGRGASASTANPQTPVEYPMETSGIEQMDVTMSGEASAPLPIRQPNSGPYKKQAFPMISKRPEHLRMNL

[14] = target: h5HT2B (Homo sapiens, UniProt P41595); test: Calcium Mobilization Antagonist (Eurofins-CEREP); conditions: read-out: % Effect, Inhibition
[15] = target: T10, hKIT(V559D,T670I) (Homo sapiens, UniProt P10721, T670I/V559D); test: KINOMEscan; format: binding
T10 construct: purchased DiscoverX (KINOMEscan platform)

[16] = target: T11, hEGFR(L747-E749del, A750P) (Homo sapiens, UniProt P00533, A750P/DEL747-749); test: KINOMEscan; format: binding
T11 construct: purchased DiscoverX

[17] = target: T12, hWEE1 (Homo sapiens, UniProt P30291); test: KINOMEscan; format: binding
T12 construct: purchased DiscoverX
T12 sequence (P30291 whole entry): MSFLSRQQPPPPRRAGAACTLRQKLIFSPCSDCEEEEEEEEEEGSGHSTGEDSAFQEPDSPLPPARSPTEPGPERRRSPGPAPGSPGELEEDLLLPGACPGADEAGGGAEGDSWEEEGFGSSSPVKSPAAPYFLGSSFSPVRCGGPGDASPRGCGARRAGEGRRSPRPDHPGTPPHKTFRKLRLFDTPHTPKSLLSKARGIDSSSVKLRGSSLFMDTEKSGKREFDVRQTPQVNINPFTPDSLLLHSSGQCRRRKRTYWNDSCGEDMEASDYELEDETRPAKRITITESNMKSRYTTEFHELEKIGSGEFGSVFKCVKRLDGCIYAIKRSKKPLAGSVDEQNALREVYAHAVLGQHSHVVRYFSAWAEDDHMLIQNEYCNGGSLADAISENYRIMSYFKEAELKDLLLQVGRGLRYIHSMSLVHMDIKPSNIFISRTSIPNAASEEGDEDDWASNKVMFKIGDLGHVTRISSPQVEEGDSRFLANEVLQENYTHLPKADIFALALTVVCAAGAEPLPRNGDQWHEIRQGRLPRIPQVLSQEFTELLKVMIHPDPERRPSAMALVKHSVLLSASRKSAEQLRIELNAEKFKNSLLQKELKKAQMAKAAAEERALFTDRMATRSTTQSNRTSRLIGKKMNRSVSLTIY

[18] = target: T13, hMAP3K15 (Homo sapiens, UniProt Q6ZN16); test: KINOMEscan; format: binding
T13 construct: purchased DiscoverX (KINOMEscan platform)

[19] = target: T14, hGSK3A (Homo sapiens, UniProt P49840); test: KINOMEscan; format: binding
T14 construct: purchased DiscoverX

Chain of hD2L (P14416 whole entry): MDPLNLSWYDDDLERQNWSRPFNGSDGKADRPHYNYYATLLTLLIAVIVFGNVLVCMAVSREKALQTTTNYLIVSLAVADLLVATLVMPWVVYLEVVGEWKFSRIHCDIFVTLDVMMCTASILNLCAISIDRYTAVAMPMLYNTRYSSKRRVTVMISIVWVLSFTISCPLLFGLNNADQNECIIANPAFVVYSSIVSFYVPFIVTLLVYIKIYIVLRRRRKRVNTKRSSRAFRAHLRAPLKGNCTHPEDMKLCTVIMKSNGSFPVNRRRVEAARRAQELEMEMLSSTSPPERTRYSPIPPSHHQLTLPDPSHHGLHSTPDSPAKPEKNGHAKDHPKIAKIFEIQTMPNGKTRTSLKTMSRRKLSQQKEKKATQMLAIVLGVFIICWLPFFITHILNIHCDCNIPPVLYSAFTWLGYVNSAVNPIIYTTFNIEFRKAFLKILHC

`Cc1cn(CCN2CCN(c3ccccc3-c3cc(C#N)cc(C(=O)NCCCN4CCCC4)c3)CC2)c2ccccc12` [LLY-507, 3-cyano-5-{2-[4-[2-(3-methylindol-1-yl)ethyl]piperazin-1-yl]-phenyl}-N-[(3-pyrrolidin-1-yl)propyl]benzamide] was tested, and the “% Effect, Stimulation” value [1] was 10.1%, the IC50 [2] was > 20 µM and the IC50 [3] was < 1 µM. For the same compound, the inhibition at 10 µM [4] was 36.3%, the “% Effect, Stimulation” value [5] was 2.6% and the IC50 [6] was > 20 µM. For the same compound, the inhibition at 10 µM [7] was 43.4%, the “% Effect, Stimulation” value [8] was -1.4% and the IC50 [9] was > 20 µM. The IC50 [10] was > 20 µM, the IC50 [11] was > 20 µM and the IC50 [12] was > 20 µM. For the same compound, the IC50 [13] was > 20 µM, the inhibition at 10 µM [14] was 6.8% and the IC50 [15] was > 20 µM. The IC50 [16] was > 20 µM, the IC50 [17] was > 20 µM and the IC50 [18] was > 20 µM. For the same compound, the IC50 [19] was > 20 µM.
